The results in this text go back to ChEMBL document CHEMBL2074134, “Identification and characterization of human organic anion transporter 3 expressing predominantly in the kidney” (Mol Pharmacol, 2001).

Data set [1] has as its target T1, Organic anion transporter 3 (Homo sapiens, UniProt Q8TCC7).
T1 sequence (Q8TCC7 whole entry): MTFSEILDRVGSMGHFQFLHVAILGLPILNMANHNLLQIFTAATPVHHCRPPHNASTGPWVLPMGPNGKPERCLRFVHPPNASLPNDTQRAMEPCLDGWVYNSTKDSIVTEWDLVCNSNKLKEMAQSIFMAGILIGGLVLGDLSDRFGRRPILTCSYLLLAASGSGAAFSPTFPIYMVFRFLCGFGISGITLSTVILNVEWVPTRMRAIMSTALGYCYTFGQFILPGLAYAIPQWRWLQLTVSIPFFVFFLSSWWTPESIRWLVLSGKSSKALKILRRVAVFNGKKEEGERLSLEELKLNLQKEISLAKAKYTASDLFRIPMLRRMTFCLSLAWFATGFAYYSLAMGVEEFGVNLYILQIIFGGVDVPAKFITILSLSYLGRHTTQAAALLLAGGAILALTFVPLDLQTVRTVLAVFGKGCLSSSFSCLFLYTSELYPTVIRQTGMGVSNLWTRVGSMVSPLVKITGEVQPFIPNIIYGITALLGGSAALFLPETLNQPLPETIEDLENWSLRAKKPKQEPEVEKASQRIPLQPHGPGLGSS
As to the kind of experiment: (§1) TP_TRANSPORTER: uptake in Xenopus laevis oocytes. The format is functional, cell-based. To be noted: oocyte.

Data set [2] deals with T1, Organic anion transporter 3. Put plainly: TP_TRANSPORTER: inhibition of E1S uptake (E1S: 0.05 uM, Ibuprofen: 5 uM) in Xenopus laevis oocytes. It counts as functional, cell-based. As to conditions: oocyte.
Data set [3] has the same target. As to the kind of experiment: TP_TRANSPORTER: inhibition of E1S uptake (E1S: 0.05 uM, DHEAS: 5 uM) in Xenopus laevis oocytes. It counts as functional, cell-based. As to conditions: oocyte.
Data set [4] has the same target. Put plainly: TP_TRANSPORTER: inhibition of E1S uptake (E1S: 0.05 uM, Corticosterone: 5 uM) in Xenopus laevis oocytes. It counts as functional, cell-based. As to conditions: oocyte.
Data set [5] shares this target. Put plainly: TP_TRANSPORTER: inhibition of E1S uptake (E1S: 0.05 uM, Quinidine: 5 uM) in Xenopus laevis oocytes. The format is functional, cell-based. To be noted: oocyte.
For data set [6] the target is unchanged. Put plainly: TP_TRANSPORTER: inhibition of E1S uptake (E1S: 0.05 uM, Guanidine: 5 uM) in Xenopus laevis oocytes. As to conditions: oocyte. It counts as functional, cell-based.
Data set [7] has the same target. Put plainly: TP_TRANSPORTER: inhibition of E1S uptake (E1S: 0.05 uM, PCG: 5 uM) in Xenopus laevis oocytes. It counts as functional, cell-based. As to conditions: oocyte.
Data set [8] has the same target. As to the kind of experiment: TP_TRANSPORTER: inhibition of E1S uptake (E1S: 0.05 uM, Indomethacin: 5 uM) in Xenopus laevis oocytes. It counts as functional, cell-based. As to conditions: oocyte.
The target is the same in data set [9]. As to the kind of experiment: TP_TRANSPORTER: inhibition of E1S uptake (E1S: 0.05 uM, Probenecid: 5 uM) in Xenopus laevis oocytes. To be noted: oocyte. The format is functional, cell-based.
Data set [10] has the same target. Put plainly: TP_TRANSPORTER: inhibition of E1S uptake (E1S: 0.05 uM, Diclofenac: 5 uM) in Xenopus laevis oocytes. It counts as functional, cell-based. To be noted: oocyte.
Data set [11] shares this target. As to the kind of experiment: TP_TRANSPORTER: inhibition of E1S uptake (E1S: 0.05 uM, Glutarate: 5 uM) in Xenopus laevis oocytes. As to conditions: oocyte. It counts as functional, cell-based.
The target is the same in data set [12]. As to the kind of experiment: TP_TRANSPORTER: inhibition of E1S uptake (E1S: 0.05 uM, AZT: 5 uM) in Xenopus laevis oocytes. The format is functional, cell-based. To be noted: oocyte.
Data set [13] shares this target. Put plainly: TP_TRANSPORTER: inhibition of E1S uptake (E1S: 0.05 uM, Ouabain: 5 uM) in Xenopus laevis oocytes. The format is functional, cell-based. As to conditions: oocyte.
Data set [14] has the same target. Put plainly: TP_TRANSPORTER: inhibition of E1S uptake (E1S: 0.05 uM, BSP: 5 uM) in Xenopus laevis oocytes. The format is functional, cell-based. As to conditions: oocyte.
Data set [15] has the same target. As to the kind of experiment: TP_TRANSPORTER: inhibition of E1S uptake (E1S: 0.05 uM, Bumetanide: 5 uM) in Xenopus laevis oocytes. The format is functional, cell-based. To be noted: oocyte.
Substrate in data set [16]: CN(Cc1cnc2nc(N)nc(N)c2n1)c1ccc(C(=O)N[C@@H](CCC(=O)O)C(=O)O)cc1
The description is as §1. It counts as functional, cell-based, Oocyte.

Substrate in data set [17]: C[C@]12CC[C@@H]3c4ccc(OS(=O)(=O)O)cc4CC[C@H]3[C@@H]1CCC2=O
The description is as §1. It counts as functional, cell-based, Oocyte.

Substrate in data set [18]: Nc1ccc(C(=O)NCC(=O)O)cc1
The description is as §1. The format is functional, cell-based, Oocyte.

Substrate in data set [19]: CN/C(=N/CCSCc1nc[nH]c1C)NC#N
As to the kind of experiment: cells, lysate or membranes named.

Consider `CC(C)Cc1ccc(C(C)C(=O)O)cc1` (centres undefined) [IBUPROFEN], for which the results for the Activity result in [1] and in data set [2] were “is not a substrate [-]” and “inhibitor [(at a rough estimate) 10 % of control]”, respectively.
On to `C[C@]12CC[C@H](OS(=O)(=O)O)CC1=CC[C@@H]1[C@@H]2CC[C@]2(C)C(=O)CC[C@@H]12` [PRASTERONE SULFURIC ACID], for which the Activity entry was “substrate [+]” in [1] and “inhibitor [(at a rough estimate) 10 % of control]” in data set [3].
`C[C@]12C[C@H](O)[C@H]3[C@@H](CCC4=CC(=O)CC[C@@]43C)[C@@H]1CC[C@@H]2C(=O)CO` [CORTICOSTERONE]: the Activity entry in [4] was “inhibitor [(at a rough estimate) 30 % of control]”.
As to `C=C[C@H]1C[N@@]2CC[C@H]1C[C@@H]2[C@@H](O)c1ccnc2ccc(OC)cc12` [QUINIDINE], the Activity result in data set [5] is “inhibitor [(at a rough estimate) 55 % of control]”.
As for `O=c1[nH]c(=O)c2[nH]c(=O)[nH]c2[nH]1` [URIC ACID], the Activity entry in data set [1] is “substrate [+]”.
Still for that read-out and setting: in the case of `C[C@]12CC[C@@H]3c4ccc(O)cc4CC[C@H]3[C@@H]1CC[C@@H]2O[C@@H]1O[C@H](C(=O)O)[C@@H](O)[C@H](O)[C@H]1O` [ESTRADIOL 17B GLUCURONIDE] it was “substrate [+]”; in that of `O=C(O)c1ccccc1O` [SALICYLIC ACID], “substrate [+]”; in that of `Nc1nc2c(ncn2COCCO)c(=O)[nH]1` [ACYCLOVIR], “is not a substrate [-]”.
Consider `O=C(O)CCC(=O)O` [SUCCINIC ACID], for which the Activity entry in data set [1] was “is not a substrate [-]”.
As to `N=C(N)N` [GUANIDINE], the Activity entry in data set [6] was “is not an inhibitor [-]”.
Take `CCCC(CCC)C(=O)O` [VALPROIC ACID]: the Activity entry in [1] was “is not a substrate [-]”.
Regarding `CC1(C)S[C@@H]2[C@H](NC(=O)Cc3ccccc3)C(=O)N2[C@H]1C(=O)O` [PENICILLIN G], the Activity result in data set [7] is “inhibitor [(at a rough estimate) 35 % of control]”.
Regarding `COc1ccc2c(c1)c(CC(=O)O)c(C)n2C(=O)c1ccc(Cl)cc1` [INDOMETHACIN], in data set [8], the Activity entry was “inhibitor [(at a rough estimate) 15 % of control]”.
For the molecule `O=C(O)[C@H]1O[C@@H](O)[C@H](O)[C@@H](O)[C@@H]1O` [GLUCURONATE], the Activity entry in data set [1] is “is not a substrate [-]”.
Turning to `CCCN(CCC)S(=O)(=O)c1ccc(C(=O)O)cc1` [PROBENECID], in [9], the Activity entry was “inhibitor [(at a rough estimate) 10 % of control]”.
As for `O=C(O)Cc1ccccc1Nc1c(Cl)cccc1Cl` [DICLOFENAC], in [10], the Activity result is “inhibitor [(at a rough estimate) 10 % of control]”.
In the case of `O=C(O)CCCC(=O)O` [GLUTARATE], the figures for the Activity entry in data set [1] and in data set [11] were “substrate [+]” and “inhibitor [(at a rough estimate) 35 % of control]”, respectively.
Regarding `Cc1cn([C@H]2C[C@H](N=[N+]=[N-])[C@@H](CO)O2)c(=O)[nH]c1=O` [ZIDOVUDINE], the Activity result in [12] is “is not an inhibitor [-]”.
For `C[C@@H]1O[C@@H](O[C@H]2C[C@@H](O)[C@]3(CO)[C@H]4[C@H](O)C[C@]5(C)[C@@H](C6=CC(=O)OC6)CC[C@]5(O)[C@@H]4CC[C@]3(O)C2)[C@H](O)[C@H](O)[C@H]1O` [OUABAIN], the Activity result in data set [13] was “is not an inhibitor [-]”.
Turning to `O=C1OC(c2ccc(O)c(S(=O)(=O)[O-])c2)(c2ccc(O)c(S(=O)(=O)[O-])c2)c2c(Br)c(Br)c(Br)c(Br)c21.[Na+].[Na+]` [SULFOBROMOPHTHALEIN SODIUM], the Activity entry in data set [14] is “inhibitor [(at a rough estimate) 55 % of control]”.
`CCCCNc1cc(C(=O)O)cc(S(N)(=O)=O)c1Oc1ccccc1` [BUMETANIDE]: the Activity entry in data set [15] is “inhibitor [(at a rough estimate) 10 % of control]”.
As to `C[C@@H]1Cc2c(Cl)cc(C(=O)N[C@@H](Cc3ccccc3)C(=O)O)c(O)c2C(=O)O1` [3R14S-OCHRATOXIN A], the Activity entry in data set [1] was “substrate [+]”.

B1: Organic anion transporter 3 (Homo sapiens) (protein)
chain: T1 sequence (Q8TCC7 whole entry)
With B1, the Km in data set [16] turned out to be 10.9 µM; in data set [17], 3.1 µM; in [18] it was 87.2 µM; in data set [19] it was 57.4 µM.

A word on the Km: it is the concentration of substrate that gives half-maximal velocity.
